# According to the NIST ThermoML archive (doi:10.1016/j.jct.2004.09.014):
# Numbers after ± are expanded uncertainties.
# Columns and labels:
# [1] = xn = mol fraction of the nth substance listed; conditions: 101.3 kPa, Liquid
# [2] = 101.3 kPa, Liquid
Compound,mass density ([2]; 293.15 K) [kg/m3],mass density ([2]; 298.15 K) [kg/m3],mass density ([2]; 303.15 K) [kg/m3],mass density ([2]; 308.15 K) [kg/m3],mass density ([2]; 313.15 K) [kg/m3],also measured
CCOC(C)(C)C [2-ethoxy-2-methylpropane] + COCCOCCO,–,–,–,–,–,"mass density ([1]; 293.15 K, x1 = 1): 741.11 ± 0.61 kg/m3; mass density ([1]; 298.15 K, x1 = 1): 735.59 ± 0.65 kg/m3; mass density ([1]; 303.15 K, x1 = 1): 730.85 ± 0.69 kg/m3; mass density ([1]; 308.15 K, x1 = 1): 725.98 ± 0.73 kg/m3; mass density ([1]; 313.15 K, x1 = 1): 720.69 ± 0.77 kg/m3"
CCOC(C)(C)C [2-ethoxy-2-methylpropane] + COCCOCCOCCO,–,–,–,–,–,"mass density ([1]; 293.15 K, x1 = 1): 741.11 ± 0.61 kg/m3; mass density ([1]; 298.15 K, x1 = 1): 735.59 ± 0.65 kg/m3; mass density ([1]; 303.15 K, x1 = 1): 730.85 ± 0.69 kg/m3; mass density ([1]; 308.15 K, x1 = 1): 725.98 ± 0.73 kg/m3; mass density ([1]; 313.15 K, x1 = 1): 720.69 ± 0.77 kg/m3"
CCOC(C)(C)C [2-ethoxy-2-methylpropane],741.11 ± 0.61,735.59 ± 0.65,730.85 ± 0.69,725.98 ± 0.73,720.69 ± 0.77,–
COCCOCCO [2-(2-methoxyethoxy)ethanol],1020.8 ± 1.4,1016.4 ± 1.4,1011.83 ± 1.5,1007.69 ± 1.5,1003.22 ± 1.5,–
COCCOCCOCCO [2-[2-(2-methoxyethoxy)ethoxy]ethanol],1047.29 ± 1.9,1042.97 ± 1.9,1038.65 ± 1.9,1034.33 ± 1.9,1030.01 ± 2,–
COCCO [2-methoxyethan-1-ol] + CCOC(C)(C)C,–,–,–,–,–,"mass density ([1]; 293.15 K, x2 = 0): 964.88 ± 1 kg/m3; mass density ([1]; 298.15 K, x2 = 0): 960.29 ± 1.1 kg/m3; mass density ([1]; 303.15 K, x2 = 0): 955.76 ± 1.1 kg/m3; mass density ([1]; 308.15 K, x2 = 0): 951.1 ± 1.1 kg/m3; mass density ([1]; 313.15 K, x2 = 0): 946.54 ± 1.1 kg/m3"
COCCO [2-methoxyethan-1-ol],964.88 ± 1,960.29 ± 1.1,955.76 ± 1.1,951.1 ± 1.1,946.54 ± 1.1,–
